Tests used:
[1] = biological target: T1, COX-2 (cyclooxygenase enzyme-2) (Homo sapiens, UniProt P35354); test: biochemical; parameters: In vitro cyclooxygenase (COX-1 and COX-2) enzyme inhibition assay, percent inhibition; details: read-out: % inhibition
T1 construct: gene PTGS2
T1 sequence (P35354 18-604): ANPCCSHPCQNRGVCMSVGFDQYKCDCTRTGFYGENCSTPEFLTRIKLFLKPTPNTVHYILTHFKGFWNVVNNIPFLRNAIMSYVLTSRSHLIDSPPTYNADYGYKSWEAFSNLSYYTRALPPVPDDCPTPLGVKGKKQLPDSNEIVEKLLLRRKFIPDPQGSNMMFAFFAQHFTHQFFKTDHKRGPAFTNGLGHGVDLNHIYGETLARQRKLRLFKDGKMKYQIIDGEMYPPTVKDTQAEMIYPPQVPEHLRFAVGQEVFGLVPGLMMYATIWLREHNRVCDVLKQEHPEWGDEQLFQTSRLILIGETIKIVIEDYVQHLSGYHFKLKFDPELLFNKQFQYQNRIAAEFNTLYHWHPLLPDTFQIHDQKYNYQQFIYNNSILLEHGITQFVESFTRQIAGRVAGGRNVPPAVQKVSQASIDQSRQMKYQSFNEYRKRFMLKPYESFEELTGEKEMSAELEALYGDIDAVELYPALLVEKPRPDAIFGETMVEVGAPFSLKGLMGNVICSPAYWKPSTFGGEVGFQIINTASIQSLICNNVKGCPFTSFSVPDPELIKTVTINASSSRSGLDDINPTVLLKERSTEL

[2] = biological target: T2, COX-1 (cyclooxygenase enzyme-1) (Ovis aries, UniProt P05979); test: biochemical; parameters: In vitro cyclooxygenase (COX-1 and COX-2) enzyme inhibition assay, percent inhibition; details: read-out: % inhibition
T2 construct: gene PTGS1
T2 sequence (P05979 25-600): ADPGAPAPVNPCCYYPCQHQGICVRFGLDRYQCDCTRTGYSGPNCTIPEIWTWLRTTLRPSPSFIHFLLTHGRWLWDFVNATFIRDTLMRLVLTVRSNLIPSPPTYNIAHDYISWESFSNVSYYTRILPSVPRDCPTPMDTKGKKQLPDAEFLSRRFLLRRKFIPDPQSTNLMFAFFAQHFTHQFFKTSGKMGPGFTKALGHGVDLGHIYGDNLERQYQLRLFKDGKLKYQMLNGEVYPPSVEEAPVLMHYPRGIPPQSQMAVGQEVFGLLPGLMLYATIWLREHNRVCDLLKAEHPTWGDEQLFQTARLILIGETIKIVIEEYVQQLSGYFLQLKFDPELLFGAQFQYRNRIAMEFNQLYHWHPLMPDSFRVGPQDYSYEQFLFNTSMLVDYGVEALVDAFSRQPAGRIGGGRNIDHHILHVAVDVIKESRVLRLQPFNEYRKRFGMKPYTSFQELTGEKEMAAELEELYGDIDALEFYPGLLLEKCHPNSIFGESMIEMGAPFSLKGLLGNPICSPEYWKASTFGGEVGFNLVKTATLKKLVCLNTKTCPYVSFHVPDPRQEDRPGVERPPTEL
Protocol: (see S1 File for experimental details). To evaluate the health-beneficial activity of the sea lamprey compounds, we included all isolates of sea lamprey extract for the evaluation of in vitro antiinflammatory and antioxidant activities. […] (S1 File). […] Antiinflammatory activities of arginine, tyrosine, tryptophan, asparagine and inosine were assayed at 50 μg/mL concentration.

[3] = parameters: Fe2+-induced liposome lipid peroxidation; per cent inhibition measured as loss of fluorescent probe signal; details: large unilamellar vesicles; LPO (lipid peroxidation of large unilamellar liposomes, Fe2+-initiated); 25 ug/mL; inhibitor
Protocol: Pure compounds and positive controls were assayed for LPO inhibitory activities according to published procedures from our laboratory (see S1 File for experimental details). The antioxidant assay, the lipid peroxidation inhibitory (LPO) assay, used in this study measures free radical scavenging capability of pure compounds and extracts. In this assay, peroxidation of the lipid was initiated by the addition of Fe^2+ resulting in the generation of radicals, which cause the peroxidation of LUV and in turn the fluorescent probes embedded in it. The loss of fluorescent intensity in the assay indicates the oxidative damage to the lipid component of the LUV [11–15, 21] (S1 File). At 25 μg/mL concentration, cholesteryl palmitate, cholesteryl oleate, cholesteryl eicosapentaenoate and cholesteryl arachidonate inhibited LPO by 38, 60, 72 and 82%, respectively (Table 2) (Fig S in S1 File). The most abundant steroidal compound in sea lamprey was cholesterol and it lacked LPO inhibitory activity. Antioxidant activity profiles of the cholesterol esters were like its antiinflammatory profiles. That is, an increase in chain length and unsaturation increased the LPO activity. Majority of the lipophilic fraction of the sea lamprey extract consisted of glycerides and free fatty acids.

O=c1[nH]c(=O)c2nc[nH]c2[nH]1 [Xanthine]
inhibition at 25 µg/mL [1]: 4.37 ± 0.6%
inhibition at 25 µg/mL [2]: 12.7 ± 3.8%

C[C@@H](O)[C@H](N)C(=O)O [Threonine]
inhibition at 25 µg/mL [1]: 5.82 ± 2.9%
inhibition at 25 µg/mL [2]: 19.4 ± 1.4%

Nc1[nH]cnc2ncnc1-2 [compound 36, Adenine]
% inhibition [3]: 19.5 ± 0.7%

N[C@@H](CS)C(=O)O [compound 30, Cysteine]
% inhibition [3]: 47.0 ± 1.4%

N[C@@H](Cc1ccc(O)cc1)C(=O)O [Tyrosine]
inhibition at 25 µg/mL [1]: 21.8 ± 2.4%
inhibition at 25 µg/mL [2]: 37.2 ± 1.1%

CCCC(=O)C(=O)O [α-Ketovaleric acid]
inhibition at 25 µg/mL [1]: 4.37 ± 0.5%
inhibition at 25 µg/mL [2]: 4.13 ± 0.6%

CC(C)C(=O)C(=O)O [compound 44, α-Ketoisovaleric acid]
% inhibition [3]: 15.5 ± 0.7%

NCCCCN [Putrescine]
inhibition at 25 µg/mL [1]: 10.3 ± 1.4%
inhibition at 25 µg/mL [2]: 16.9 ± 0.2%

Nc1[nH]cnc2ncnc1-2 [Adenine]
inhibition at 25 µg/mL [1]: 10 ± 1.4%
inhibition at 25 µg/mL [2]: 11.7 ± 1.8%

CC(C)CCC[C@@H](C)[C@H]1CC[C@H]2[C@@H]3CC=C4C[C@@H](O)CC[C@]4(C)[C@H]3CC[C@]12C [Cholesterol]
inhibition at 25 µg/mL [1]: 4.94 ± 2.4%
inhibition at 25 µg/mL [2]: 2.92 ± 1.4%

O=c1[nH]cnc2c1ncn2[C@@H]1O[C@H](CO)[C@@H](O)[C@H]1O [compound 35, Inosine]
% inhibition [3]: 16.5 ± 2.1%

CN(CC(=O)O)C(=N)N [compound 34, Creatine]
% inhibition [3]: 16.5 ± 0.7%

N[C@@H](CO)C(=O)O [compound 32, Serine]
% inhibition [3]: 29.0 ± 1.4%

CCC(=O)C(=O)O [compound 45, α-Ketobutyric acid]
% inhibition [3]: 16.5 ± 0.7%

CCCCCCCC/C=C\CCCCCCCC(=O)O[C@H]1CC[C@@]2(C)C(=CC[C@H]3[C@@H]4CC[C@H]([C@H](C)CCCC(C)C)[C@@]4(C)CC[C@@H]32)C1 [Cholesteryl oleate^#]
inhibition at 25 µg/mL [1]: 31.1 ± 2.8%
inhibition at 25 µg/mL [2]: 45.9 ± 0.5%

CN(CC(=O)O)C(=N)N [Creatine]
inhibition at 25 µg/mL [1]: 9.65 ± 1.3%
inhibition at 25 µg/mL [2]: 13.3 ± 2.7%

O=c1[nH]cnc2nc[nH]c12 [compound 38, Hypoxanthine]
% inhibition [3]: 24.5 ± 0.7%

NCCCNCCCCNCCCN [Spermine]
inhibition at 25 µg/mL [1]: 3.03 ± 0.5%
inhibition at 25 µg/mL [2]: 17.5 ± 1.9%

O=c1[nH]cnc2c1ncn2[C@@H]1O[C@H](CO)[C@@H](O)[C@H]1O [Inosine]
inhibition at 25 µg/mL [1]: 26.1 ± 0.9%
inhibition at 25 µg/mL [2]: 35.8 ± 0.5%

NCC(=O)O [compound 29, Glycine]
% inhibition [3]: 16.5 ± 0.7%

N[C@@H](Cc1ccccc1)C(=O)O [Phenylalanine]
inhibition at 25 µg/mL [1]: 11.5 ± 1.3%
inhibition at 25 µg/mL [2]: 15.6 ± 1.7%

N=C(N)NCCC[C@H](N)C(=O)O [Arginine]
inhibition at 25 µg/mL [1]: 11.9 ± 1.9%
inhibition at 25 µg/mL [2]: 29.7 ± 1.3%

CCCCCCCC/C=C\CCCCCCCC(=O)O[C@H]1CC[C@@]2(C)C(=CC[C@H]3[C@@H]4CC[C@H]([C@H](C)CCCC(C)C)[C@@]4(C)CC[C@@H]32)C1 [compound 9, Cholesteryl oleate^#]
% inhibition [3]: 59.5 ± 0.7%

CC(C)C[C@H](N)C(=O)O [Leucine]
inhibition at 25 µg/mL [1]: 4.89 ± 3.9%
inhibition at 25 µg/mL [2]: 18.2 ± 1.3%

O=C(O)C(O)Cc1ccccc1 (stereo not drawn) [compound 48, 3-Phenyllactic acid]
% inhibition [3]: 25.0 ± 1.4%

CC[C@H](C)[C@H](N)C(=O)O [compound 21, Isoleucine]
% inhibition [3]: 17.5 ± 0.7%

CC(O)CC(=O)O (stereo not drawn) [compound 46, β-Hydroxybutyric acid]
% inhibition [3]: 21.5 ± 0.7%

N[C@@H](Cc1c[nH]c2ccccc12)C(=O)O [Tryptophan]
inhibition at 25 µg/mL [1]: 19.6 ± 1.8%
inhibition at 25 µg/mL [2]: 37.6 ± 0.8%

CC(=O)C(=O)O [Pyruvic acid]
inhibition at 25 µg/mL [1]: 7.8 ± 0.8%
inhibition at 25 µg/mL [2]: 9.48 ± 2.9%

N[C@@H](CCC(=O)O)C(=O)O [compound 23, Glutamic acid]
% inhibition [3]: 46.0 ± 1.4%

CC(C)C(=O)C(=O)O [α-Ketoisovaleric acid]
inhibition at 25 µg/mL [1]: 10.5 ± 1.8%
inhibition at 25 µg/mL [2]: 17.1 ± 2.1%

N[C@@H](Cc1ccccc1)C(=O)O [compound 22, Phenylalanine]
% inhibition [3]: 44.0 ± 1.4%

NCCCCN [compound 41, Putrescine]
% inhibition [3]: 17.0 ± 1.4%

C[C@@H](O)[C@H](N)C(=O)O [compound 26, Threonine]
% inhibition [3]: 45.0 ± 1.4%

NCCCNCCCCNCCCN [compound 42, Spermine]
% inhibition [3]: 16.5 ± 0.7%

O=c1[nH]c(=O)c2nc[nH]c2[nH]1 [compound 37, Xanthine]
% inhibition [3]: 22.0 ± 1.4%

N[C@@H](Cc1c[nH]c2ccccc12)C(=O)O [compound 25, Tryptophan]
% inhibition [3]: 57.5 ± 0.7%

O=C(O)[C@@H]1CCCN1 [compound 31, Proline]
% inhibition [3]: 17.0 ± 1.4%

O=C(O)C(O)Cc1ccccc1 (stereo not drawn) [3-Phenyllactic acid]
inhibition at 25 µg/mL [1]: 11.5 ± 1.6%
inhibition at 25 µg/mL [2]: 4.42 ± 0.3%

N[C@@H](CC(=O)O)C(=O)O [Aspartic acid]
inhibition at 25 µg/mL [1]: 4.23 ± 0.6%
inhibition at 25 µg/mL [2]: 11.8 ± 0.6%

CSCC[C@H](N)C(=O)O [Methionine]
inhibition at 25 µg/mL [1]: 4.36 ± 0.4%
inhibition at 25 µg/mL [2]: 15.2 ± 1.5%

CCCC(=O)C(=O)O [compound 43, α-Ketovaleric acid]
% inhibition [3]: 15.0 ± 1.4%

O=c1[nH]cnc2nc[nH]c12 [Hypoxanthine]
inhibition at 25 µg/mL [1]: 5.82 ± 0.4%
inhibition at 25 µg/mL [2]: 10.9 ± 1.4%

N[C@@H](CCC(=O)O)C(=O)O [Glutamic acid]
inhibition at 25 µg/mL [1]: 13.8 ± 2.4%
inhibition at 25 µg/mL [2]: 32.2 ± 1.9%

CC(C)[C@H](N)C(=O)O [Valine]
inhibition at 25 µg/mL [1]: 8.33 ± 1.3%
inhibition at 25 µg/mL [2]: 21.6 ± 0.9%

CCCCCCCCCCCCCCCC(=O)O[C@H]1CC[C@@]2(C)C(=CC[C@H]3[C@@H]4CC[C@H]([C@H](C)CCCC(C)C)[C@@]4(C)CC[C@@H]32)C1 [compound 8, Cholesteryl palmitate^#]
% inhibition [3]: 38.0 ± 1.4%

NC(=O)C[C@H](N)C(=O)O [Asparagine]
inhibition at 25 µg/mL [1]: 17.3 ± 0.9%
inhibition at 25 µg/mL [2]: 26.8 ± 2.3%

CC(=O)Oc1ccccc1C(=O)O [compound 1, Aspirin]
inhibition at 108 µg/mL [1]: 29.8 ± 0.9%

CCC(=O)C(=O)O [α-Ketobutyric acid]
inhibition at 25 µg/mL [1]: 9.65 ± 0.4%
inhibition at 25 µg/mL [2]: 5.24 ± 0.3%

O=C(O)[C@@H]1CCCN1 [Proline]
inhibition at 25 µg/mL [1]: 7.14 ± 1.1%
inhibition at 25 µg/mL [2]: 21.6 ± 2.4%

NCC(=O)O [Glycine]
inhibition at 25 µg/mL [1]: 7.01 ± 0.9%
inhibition at 25 µg/mL [2]: 12.9 ± 1.4%

N[C@@H](CS)C(=O)O [Cysteine]
inhibition at 25 µg/mL [1]: 9.65 ± 1.3%
inhibition at 25 µg/mL [2]: 12.9 ± 3.5%

Nc1ncnc2c1ncn2[C@@H]1O[C@H](CO)[C@@H](O)[C@H]1O [Adenosine]
inhibition at 25 µg/mL [1]: 14.7 ± 0.8%
inhibition at 25 µg/mL [2]: 16.6 ± 1.1%

CC(O)CC(=O)O (stereo not drawn) [β-Hydroxybutyric acid]
inhibition at 25 µg/mL [1]: 12.3 ± 1.6%
inhibition at 25 µg/mL [2]: 19.7 ± 1.5%

N[C@@H](CO)C(=O)O [Serine]
inhibition at 25 µg/mL [1]: 2.91 ± 0.3%
inhibition at 25 µg/mL [2]: 6.25 ± 2.4%

CC[C@H](C)[C@H](N)C(=O)O [Isoleucine]
inhibition at 25 µg/mL [1]: 9.92 ± 0.5%
inhibition at 25 µg/mL [2]: 23.3 ± 0.6%

CCCCCCCCCCCCCCCC(=O)O[C@H]1CC[C@@]2(C)C(=CC[C@H]3[C@@H]4CC[C@H]([C@H](C)CCCC(C)C)[C@@]4(C)CC[C@@H]32)C1 [Cholesteryl palmitate^#]
inhibition at 25 µg/mL [1]: 17.7 ± 2.9%
inhibition at 25 µg/mL [2]: 37.7 ± 2.4%

Reference: article PMC8565778, “Evaluation of health benefits of sea lamprey (Petromyzon marinus) isolates using in vitro antiinflammatory and antioxidant assays” (PLoS ONE, 2021)
